Assay results taken from patent US20190055517A1, “Cell Line of M2c Macrophage and Its Applications” (National Pingtung University of Science and Technology, priority 2017, published 2019).

How the values were obtained:
[1] = test system: murine M2 macrophage; assay: mRNA expression level of each gene by real time PCR (qPCR) after induced differentiation; assay type: cell-based; details: for IL-6 mRNA expression level: conditions of chart 2, FIG. 6
Method: Embodiment 1 is prepared by the steps described above, isolate monocytes from murine bone marrow and use M-CSF to induce differentiation of M2 macrophage, and then use baicalin to induce M2C macrophage polarization. In comparison 1, incubate murine M2 macrophage in RPMI 1640 (10% FCS) containing LPS (lipopolysaccharide, 1 μg/ml, Sigma-Aldrich) for 2 hours. In comparison 2, incubate murine M2 macrophage in medium containing IL-4 ([…] Guidance System, Cambridge, UK) for 24 hours. The control group of M2 macrophage is incubated in RPMI 1640 (10% FCS) without any drugs. The conditions are shown below in chart 2.
After induced differentiation is complete, use flow cytometry to analyse the macrophage phenotype, in the meantime, also use real time PCR (qPCR) to observe mRNA expression level of each gene.
TNF-Alpha: M1 macrophage expression gene IRF5: M1 macrophage polarization promoting gene IRF4: M2 macrophage polarization promoting gene ARG1 (Arginase-1): M2a macrophage molecular marker IL-10: cytokine that promotes M2 macrophage polarization and inhibits inflammation IL-6: cytokine that promotes inflammation and also serves as M2b macrophage molecular marker. MERTK: a gene that serves as M2C macrophage molecular marker and promotes phagocytosis PTX3: a gene that serves as M2C macrophage molecular marker and promotes phagocytosis VEGF-A: vascular endothelial growth factor PD-L1: a gene that regulates T cell and promotes tissue autoimmune tolerance

[2] = test system: M1 and M2 macrophage derived from Raw264.7 cell line; assay: mRNA expression of VEGF family, VEGF receptor and PD-L1 by RT-qPCR in Raw264.7 derived macrophages; assay type: cell-based, murine
Method: In this example, experiment was performed to observe if baicalin can induce expression of VEGF family and PD-L1 in M1 and M2 macrophage derived from Raw264.7 cell line (ATCC, USA). M1 macrophage obtained from treating Raw264.7 macrophage with LPS (1 μg/ml, Sigma-Aldrich) for 2 hours, and M0 macrophage (control group) cultured in simple RPMI 1640 (10% FCS) medium, are respectively cultured in RPMI 1640 (10% FCS) medium with either Baicalin (50 μM, Tokyo Chemical Industry, Japan) or […] (10 ng/ml, Cell Guidance System, Cambridge, UK). Collect the cells after 24/48/72 hours of cell culturing. Then observe the mRNA expression level of VEGF family, VEGF receptor and PD-L1 using reverse transcription-real time PCR (RT-qPCR).

[3] = test system: murine M2 macrophage; assay: Phagocytosis of FITC-Latex beads with PE-anti-MERTK staining (flow cytometry, fluorescence microscopy); assay type: cell-based
Method: In this example, experiment was performed to evaluate the effect of baicalin induced differentiated […] macrophages in promoting phagocytosis. Treatment conditions of drugs in each group is listed in chart 2, and control group is cultured in RPMI1640 (10% FCS) without any drugs. After treatment, collect 5×10^5 treated cells respectively and add 50 μl FITC-Latex beads (Phagocytosis assay kit (IgG FITC), Cayman Chemical, USA.) to perform phagocytosis experiment for 24 hours, and then use PE-anti-MERTK antibody to mark the cells and observe the fluorescence expression with flow cytometry.

[4] = conditions of chart 2, P<0.05, FIG. 7 and FIG. 8
[5] = conditions of chart 2, p<0.05, FIG. 5
[6] = baicalin 50 μM, 24/48/72 hours, versus groups without baicalin, FIG. 10
[7] = versus IL-4 treated group, same treatment duration, p<0.05, FIG. 11

In the case of O=C(O)[C@H]1O[C@@H](Oc2cc3oc(-c4ccccc4)cc(=O)c3c(O)c2O)[C@H](O)[C@@H](O)[C@@H]1O [Baicalin], the “IL-6 mRNA expression level” value [1] is reported as “significantly lower than comparison 1”, the “IL-6 mRNA expression level” value ([1]; listed as embodiment 1) is reported as “low” and the “IL-10 mRNA expression level” value ([1]; conditions of chart 2, P<0.05, FIG. 6) is reported as “significantly higher than comparison 1 and 2”. The “MERTK mRNA expression level” value [1, 4] was “significantly higher than control, comparison 1 and 2”, the “PD-L1 mRNA expression level” value [1, 4] was “significantly higher than control, comparison 1 and 2” and the “PTX3 mRNA expression level” value [1, 4] was “significantly higher than control, comparison 1 and 2”. For the same molecule, the “VEGF-A mRNA expression level” value [1, 4] was “significantly higher than control, comparison 1 and 2”, the “IRF4 mRNA expression level” value [1, 5] was “significantly lower than comparison 2” and the “IRF5 mRNA expression level” value [1, 5] was “significantly lower than comparison 1”. For the same molecule, the “TNF-Alpha mRNA expression level” value [1, 5] was “significantly lower than comparison 1”, the “ARG1 mRNA expression level” value ([1]; conditions of chart 2, p<0.05, FIG. 6) was “significantly lower than comparison 2” and the “VEGF-A mRNA expression level” value ([2]; baicalin 50 μM, 24/48/72 hours, versus M1, M2 macrophages without baicalin treatment (LPS, control), FIG. 9) was “higher”. The “VEGFR-1 mRNA expression level” value [2, 6] was “higher”, the “VEGFR-2 mRNA expression level” value [2, 6] was “higher” and the “VEGF-A mRNA expression level” value [2, 7] was “significantly higher”. The “VEGFR1 mRNA expression level” value [2, 7] was “significantly higher”, the “VEGFR2 mRNA expression level” value [2, 7] was “significantly higher” and the “PD-L1 mRNA expression level” value ([2]; versus M1, M2 macrophages without baicalin treatment, p<0.05, FIG. 12) was “higher”. For the same molecule, the “percentage of cells that phagocytosed the beads” value ([3]; FITC-Latex beads 24 hours, FIG. 16) was “approximately 30%”, the “percentage of cells that phagocytosed beads and also express MERTK protein” value ([3]; FITC-Latex beads 24 hours, PE-anti-MERTK, FIG. 17) was 30% and the “MERTK fluorescence distribution of cells after phagocytosing FITC-Latex beads” value ([3]; fluorescence microscope, PE-MERTK, FIG. 18) was “express MERTK on cell membrane”.
